Data as given in PubChem BioAssay AID1963973 (Molecular Pharmacology Branch, DTP, NCI, 2024).

Tested on: 883617-216-R-J1-PDC tumor spheroids, viability
Experiment: Anticancer human tumor 883617-216-R-J1-PDC patient-derived bladder carcinoma cell line growth inhibition [PI3K]
Conditions: spheroids with HUVEC and MSC; for IC50: curve of first compound; for viability, T/C: stronger effect = lower value
In short: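 Stroma-containing spheroids: tumor line, pooled-donor HUVEC, hMSC. Treatments: targeted agents with PI3K inhibitors. Dosing: clinically relevant, half-log spacing, 10 microM ceiling without known Cmax. Read-out: cell viability.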

[1] = second compound 0.0316 µM, first compound 0.0316 µM
[2] = second compound 0.0316 µM, first compound 0.1 µM
[3] = second compound 0.1 µM, first compound 0.0316 µM
[4] = second compound 0.1 µM, first compound 0.1 µM
[5] = second compound 0.316 µM, first compound 0.0316 µM
[6] = second compound 0.316 µM, first compound 0.1 µM
[7] = second compound 1 µM, first compound 0.0316 µM
[8] = second compound 1 µM, first compound 0.1 µM
[9] = second compound 3.16 µM, first compound 0.0316 µM
[10] = second compound 3.16 µM, first compound 0.1 µM
[11] = second compound 10 µM, first compound 0.0316 µM
[12] = second compound 10 µM, first compound 0.1 µM
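Note: spheroids exposed to agents for 7 days before the viability read.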

Q: How did the IC50 (second compound 0.0316 µM) turn out when CC(=O)c1c(C)c2cnc(Nc3ccc(N4CCNCC4)cn3)nc2n(C2CCCC2)c1=O + Cc1nc(NC(=O)N2CCCC2C(N)=O)sc1-c1ccnc(C(C)(C)C(F)(F)F)c1 was run?
A: > 100 nM

Q: And the IC50 (second compound 0.1 µM)?
A: 23.7 nM

Q: What about the IC50 (second compound 0.316 µM) of the same molecule?
A: < 0.316 nM

Q: And the IC50 (second compound 1 µM)?
A: < 0.316 nM

Q: And the IC50 (second compound 3.16 µM)?
A: < 0.316 nM

Q: What about the IC50 (second compound 10 µM) of the same molecule?
A: < 0.316 nM

Q: What about the viability, T/C (second compound 0.0316 µM, first compound 0.000316 µM) of the same molecule?
A: 81%

Q: What about the viability, T/C (second compound 0.0316 µM, first compound 0.001 µM) of the same molecule?
A: 70.3%

Q: And the viability, T/C (second compound 0.0316 µM, first compound 0.00316 µM)?
A: 82.5%

Q: What about the viability, T/C (second compound 0.0316 µM, first compound 0.01 µM) of the same molecule?
A: 68.1%

Q: What about the viability, T/C [1] of the same molecule?
A: 58.7%

Q: What about the viability, T/C [2] of the same molecule?
A: 50.3%

Q: What about the viability, T/C (second compound 0.1 µM, first compound 0.000316 µM) of the same molecule?
A: 65.4%

Q: What about the viability, T/C (second compound 0.1 µM, first compound 0.001 µM) of the same molecule?
A: 63.5%

Q: What about the viability, T/C (second compound 0.1 µM, first compound 0.00316 µM) of the same molecule?
A: 62.8%

Q: What about the viability, T/C (second compound 0.1 µM, first compound 0.01 µM) of the same molecule?
A: 57.8%

Q: What about the viability, T/C [3] of the same molecule?
A: 47.4%

Q: What about the viability, T/C [4] of the same molecule?
A: 37.6%

Q: What about the viability, T/C (second compound 0.316 µM, first compound 0.000316 µM) of the same molecule?
A: 47.7%

Q: And the viability, T/C (second compound 0.316 µM, first compound 0.001 µM)?
A: 43.8%

Q: And the viability, T/C (second compound 0.316 µM, first compound 0.00316 µM)?
A: 33%

Q: And the viability, T/C (second compound 0.316 µM, first compound 0.01 µM)?
A: 43.2%

Q: What about the viability, T/C [5] of the same molecule?
A: 34.5%

Q: What about the viability, T/C [6] of the same molecule?
A: 26.3%

Q: What about the viability, T/C (second compound 1 µM, first compound 0.000316 µM) of the same molecule?
A: 26.7%

Q: And the viability, T/C (second compound 1 µM, first compound 0.001 µM)?
A: 31.5%

Q: What about the viability, T/C (second compound 1 µM, first compound 0.00316 µM) of the same molecule?
A: 25.7%

Q: And the viability, T/C (second compound 1 µM, first compound 0.01 µM)?
A: 23.3%

Q: What about the viability, T/C [7] of the same molecule?
A: 21.1%

Q: What about the viability, T/C [8] of the same molecule?
A: 17.2%

Q: And the viability, T/C (second compound 3.16 µM, first compound 0.000316 µM)?
A: 12.9%

Q: What about the viability, T/C (second compound 3.16 µM, first compound 0.001 µM) of the same molecule?
A: 11.8%

Q: And the viability, T/C (second compound 3.16 µM, first compound 0.00316 µM)?
A: 13.6%

Q: And the viability, T/C (second compound 3.16 µM, first compound 0.01 µM)?
A: 14.4%

Q: And the viability, T/C [9]?
A: 11.7%

Q: And the viability, T/C [10]?
A: 11.6%

Q: And the viability, T/C (second compound 10 µM, first compound 0.000316 µM)?
A: 8.2%

Q: And the viability, T/C (second compound 10 µM, first compound 0.001 µM)?
A: 6.55%

Q: And the viability, T/C (second compound 10 µM, first compound 0.00316 µM)?
A: 6.27%

Q: And the viability, T/C (second compound 10 µM, first compound 0.01 µM)?
A: 7.44%

Q: What about the viability, T/C [11] of the same molecule?
A: 6.18%

Q: And the viability, T/C [12]?
A: 5.86%

Q: Which IC50 (second compound 0.0316 µM) does the source give for CNC(=O)c1ccc(N2C(=S)N(c3ccc(C#N)c(C(F)(F)F)c3)C(=O)C2(C)C)cc1F + Cc1nc(NC(=O)N2CCCC2C(N)=O)sc1-c1ccnc(C(C)(C)C(F)(F)F)c1 here?
A: > 10000 nM

Q: What about the IC50 (second compound 0.1 µM) of the same molecule?
A: > 10000 nM

Q: And the IC50 (second compound 0.316 µM)?
A: < 31.6 nM

Q: What about the IC50 (second compound 1 µM) of the same molecule?
A: < 31.6 nM

Q: What about the IC50 (second compound 3.16 µM) of the same molecule?
A: < 31.6 nM

Q: What about the IC50 (second compound 10 µM) of the same molecule?
A: < 31.6 nM

Q: What about the viability, T/C [1] of the same molecule?
A: 94.3%

Q: What about the viability, T/C [2] of the same molecule?
A: 75.6%

Q: What about the viability, T/C (second compound 0.0316 µM, first compound 0.316 µM) of the same molecule?
A: 86.2%

Q: What about the viability, T/C (second compound 0.0316 µM, first compound 1 µM) of the same molecule?
A: 82.5%

Q: What about the viability, T/C (second compound 0.0316 µM, first compound 3.16 µM) of the same molecule?
A: 87.8%

Q: What about the viability, T/C (second compound 0.0316 µM, first compound 10 µM) of the same molecule?
A: 63.4%

Q: And the viability, T/C [3]?
A: 74%

Q: What about the viability, T/C [4] of the same molecule?
A: 67.2%

Q: What about the viability, T/C (second compound 0.1 µM, first compound 0.316 µM) of the same molecule?
A: 81.8%

Q: What about the viability, T/C (second compound 0.1 µM, first compound 1 µM) of the same molecule?
A: 74.7%

Q: And the viability, T/C (second compound 0.1 µM, first compound 3.16 µM)?
A: 63.6%

Q: What about the viability, T/C (second compound 0.1 µM, first compound 10 µM) of the same molecule?
A: 73.7%

Q: And the viability, T/C [5]?
A: 48.6%

Q: And the viability, T/C [6]?
A: 49.1%

Q: What about the viability, T/C (second compound 0.316 µM, first compound 0.316 µM) of the same molecule?
A: 46.7%

Q: What about the viability, T/C (second compound 0.316 µM, first compound 1 µM) of the same molecule?
A: 45.7%

Q: And the viability, T/C (second compound 0.316 µM, first compound 3.16 µM)?
A: 53.6%

Q: And the viability, T/C (second compound 0.316 µM, first compound 10 µM)?
A: 45.6%

Q: What about the viability, T/C [7] of the same molecule?
A: 31%

Q: What about the viability, T/C [8] of the same molecule?
A: 27.3%

Q: And the viability, T/C (second compound 1 µM, first compound 0.316 µM)?
A: 33.1%

Q: And the viability, T/C (second compound 1 µM, first compound 1 µM)?
A: 32.4%

Q: What about the viability, T/C (second compound 1 µM, first compound 3.16 µM) of the same molecule?
A: 25.9%

Q: And the viability, T/C (second compound 1 µM, first compound 10 µM)?
A: 31.7%

Q: What about the viability, T/C [9] of the same molecule?
A: 15.9%

Q: And the viability, T/C [10]?
A: 15.3%

Q: What about the viability, T/C (second compound 3.16 µM, first compound 0.316 µM) of the same molecule?
A: 17.6%

Q: What about the viability, T/C (second compound 3.16 µM, first compound 1 µM) of the same molecule?
A: 16.6%

Q: What about the viability, T/C (second compound 3.16 µM, first compound 3.16 µM) of the same molecule?
A: 15.7%

Q: What about the viability, T/C (second compound 3.16 µM, first compound 10 µM) of the same molecule?
A: 14.3%

Q: What about the viability, T/C [11] of the same molecule?
A: 8.45%

Q: And the viability, T/C [12]?
A: 7.75%

Q: What about the viability, T/C (second compound 10 µM, first compound 0.316 µM) of the same molecule?
A: 8.14%

Q: And the viability, T/C (second compound 10 µM, first compound 1 µM)?
A: 7.47%

Q: And the viability, T/C (second compound 10 µM, first compound 3.16 µM)?
A: 8.35%

Q: And the viability, T/C (second compound 10 µM, first compound 10 µM)?
A: 6.73%
